The values that follow come from patent US10500301B2, “Agent for salting out active principles in dressings containing at least one of fatty substance” (URGO RECHERCHE INNOVATION ET DEVELOPPEMENT, priority 2007, dated 2019).

Series [1] is described as follows: Release of the active substance from interface dressings into physiological saline solution, HPLC assay. Type of series: physicochemical. As to conditions: Sepinov EMT 10 versus Montanox 80 as releasing agent in interface dressings, irrespective of the active substance. The procedure: In the case of interface dressings, prepared from the masses of examples 1 to 4 and 13 to 18, samples of 25 cm^2 of dressing (cut with a calibrated punch and precisely weighed) were introduced into an Erlenmeyer flask containing 10 ml of physiological saline solution. The glassware, hermetically sealed, was placed in an incubator at 37° C. for 24 h. The supernatant was removed and filtered. The amount of active substance was assayed by HPLC (high performance liquid chromatography) according to the methods described below.
The following conditions for assaying by high performance liquid chromatography (HPLC) were used: […]
The detection threshold for the potassium sucrose octasulfate was 0.06 mg/ml. When no peak was detected, the result was increased by the detection threshold. […]
The detection threshold for the silver sulfadiazine was 0.0006 mg/ml. When no peak was detected, the result was increased by the detection threshold.
• A calibration straight line was plotted using the calibration points, and the equation of the straight line y=ax+b (r^2>0.999), in which y=surface area under the peak x=concentration of the standard (in mg/ml) r^2=determination coefficient, was calculated. • The content of potassium sucrose octasulfate or silver sulfadiazine (x) was calculated. […]
The percentage of release of the active substance is calculated according to the following formula: […]

Series [2] deals with normal human dermal fibroblasts (NHDF) R9PF2. Nature of the series: Effect of dressings on fibroblast cultures (MTT test, tritiated thymidine incorporation). Type of series: cell-based. As to conditions: releasing agent in dressings. The procedure: • Type: pool of normal human dermal fibroblasts (NHDF) R9PF2 • Culture: 37° C., 5% CO2 Culture Medium: • DMEM (Dulbecco's Modified Eagle Medium, Invitrogen 21969035) • 2 mM L-glutamine (Invitrogen 25030024) • 50 UI/ml penicillin, 50 μg/ml streptomycin (Invitrogen 15070063) • 10% fetal calf serum (v/v, Invitrogen 10270098). Products Tested:
Dressings according to examples 1 and 23 were cut to the size of the wells and tested.
The fibroblasts were seeded at confluence in a 12-well plate.
Pieces of each dressing were cut to a size of 1.4 cm×1.4 cm (i.e. 1.96 cm^2), applied to the surface of the fibroblasts and held in place using a plug. A control without dressing but with a plug, and also a control without dressing and without plug were carried out.
The cells were then incubated for 48 hours, 96 hours and 168 hours (7 days) at 37° C. and 5% CO2. For each incubation time, the metabolic activity was measured using a standard MTT test, which accounts for the mitochondrial dehydrogenases activity. Tritiated thymidine ([methyl-3H]-thymidine, Amersham TRK 686 2.5 μCi/ml final concentration) was added during the last 24 hours of incubation, and then the DNA of the cells of the cell layers was extracted and purified and the radioactivity incorporated into the DNA was counted using a scintillation counter.
All experiments were carried out in triplicate. […]
Background: Tetrazolium assays rely on reduction of a dye to a coloured formazan, in cell work by metabolically active cells.

Consider polysorbate 80, for which the “Release of the active substance with the releasing agent, comparison in words” value in series [1] is “substantially the same release of the active substance”. Moreover, the “Effect on fibroblasts (toxicity / proliferation), in words” value in series [2] is given as “exhibits toxicity with respect to these cells”.
